Reference: patent publication US20220047617A1, “Nucleic acid nanocarrier drug, preparation method, pharmaceutical composition and use thereof” (BAI YAO ZHI DA (BEIJING) NANOBIO TECHNOLOGY CO., LTD., priority 2018, published 2022)
Where two headings read alike, the source gives them in different places. {Biotin} = biotin label attached at strand end

Assays:
MCF-7 cells [1] = assay: Cytotoxicity in MCF-7 cells (CellTiter 96 AQueous One Solution), Embodiment 33; type: cell-based, human; details: MCF-7, 96 hours
Method: Cytotoxicity of DNAh-Biotin-EGFRapt-Cy5-Mit Nanoparticles in MCF-7 Cells
(§1) 1) Harvesting cells in a logarithmic growth phase, taking a small amount and staining with trypan blue for counting to ensure that the cell viability reaches more than 98%;
(§2) 2) adjusting the cell density to 2.22×10^4/mL with a growth medium;
(§3) 3) planting 90 μL/well of cell suspension into the 96-well plate, herein the number of cells per well in the plate is 2000;
(§4) 4) placing the planted cell plate in the incubator at 37 DEG C. and incubating overnight;
(§5) 5) performing 3.16-fold gradient dilution on the compound at 9 concentration points;
6) taking out the cell culture plate, and adding 10 μL/well of 10× concentration drug working solution to the corresponding wells of the cell culture plate, herein three replicate holes are made for each concentration, and the final drug action concentration is shown in Table 144 below;
7) placing the cell culture plate in the incubator and continuously incubating for 96 hours […]
(§6) 11) using a microplate reader to read a OD490 value of each well in the cell plate; and […]
(§7) GraphPad Prism 5.0 software is used to process data graphically. […] A calculation formula of the survival rate is as follows, the IC50 may be automatically calculated in GraphPad Prism 5.0. […]

MV4-11 cells [2] = assay: Cytotoxicity in MV4-11 cells (CellTiter 96 AQueous One Solution), Embodiment 25; type: cell-based; details: MV4-11, 96 hours
Method: as §1
(§8) 2) adjusting the cell density to 1.11×10^5/mL with a growth medium;
(§9) 3) planting 90 μL/well of cell suspension into the 96-well plate, herein the number of cells per well in the plate is 10000;
as §4, §5
6) taking out the cell culture plate, and adding 10 μL/well of 10× concentration drug working solution to the corresponding wells of the cell culture plate, herein three replicate holes are made for each concentration, and the final drug action concentration is shown in Table 124 below;
(§10) 7) placing the cell culture plate in the incubator and continuously incubating for 96 hours; […]
as §6, §7

HCT116 cells = assay: Cytotoxicity in HCT116 cells (CellTiter-Glo), Embodiment 29; type: cell-based
Method: Cytotoxicity Research of RNAh-Bio-670-Docetaxel Nanoparticles in HCT116 Cells
1) Cell Culturing and Plating
HCT116 cells are cultured at 37 DEG C. and 5% CO2 in the DMEM basal medium in which 10% FBS and 1% PS are respectively added. The cell density used in the experiment is above 80%. The cells are collected, and centrifuged at 1000 rpm for 4 minutes, the medium is resuspended, the cell concentration is adjusted, and it is added to the 96-well plate in a volume of 5000 cells per 90 μL, and each group has 4 replicate wells.
2) Gradient drug concentration preparation and administration
After 24 hours, the compound solution is transferred to each well, 200 nM of each sample per well, and 4 replication wells.
Medium (untreated) control: only cells without compound treatment
Blank control: without cells, used for instrument zero calibration
3) Cell Culture after Administration
4) Cells Treated by Detection Kit
The well plate is brought to a room temperature in advance and stands for 30 minutes. 100 μL of a CellTiter-Glo® reagent is added to each well of the well plate and mixed for 2 minutes on a shaker to promote cell lysis. The Perkin Elmer Envision 2104 Multilabel Reader is used to read values and the values are recorded. […]
The acquired experiment data is analyzed and processed by using excel software, and GraphPad Prism 5 software is used for curve fitting analysis.

MCF-7 cells [3] = assay: Cytotoxicity in MCF-7 cells (CellTiter 96 AQueous One Solution), Embodiment 30; type: cell-based; details: Homo sapiens, MCF7, MCF-7, 96 hours
Method: as §1, §2, §3, §4, §5
(§11) 6) taking out the cell culture plate, and adding 10 μL/well of 10× concentration drug working solution to the corresponding wells of the cell culture plate, herein three replicate holes are made for each concentration, and the final drug action concentration is shown in Table 134 below;
as §10, §6, §7

SKOV3 cells = assay: Cytotoxicity in SKOV3 cells (CellTiter 96 AQueous One Solution), Embodiment 30; type: cell-based; details: Homo sapiens, SK-OV-3, SKOV3, 96 hours
Method: as §1, §2, §3, §4, §5, §11, §10, §6, §7

MCF-7 cells [4] = assay: Cytotoxicity in MCF-7 cells (CellTiter 96 AQueous One Solution), Embodiment 37; type: cell-based, human
Method: Cytotoxicity of DNAh-Biotin-EGFRapt-Cy5-Idarubicin Nanoparticles in MCF-7 and MV4-11 Cells
as §1, §2, §3, §4, §5
6) taking out the cell culture plate, and adding 10 μL/well of 10× concentration drug working solution to the corresponding wells of the cell culture plate, herein three replicate holes are made for each concentration, and the final drug action concentration is shown in Table 154 below;
as §10, §6, §7

MV4-11 cells [5] = assay: Cytotoxicity in MV4-11 cells (CellTiter 96 AQueous One Solution), Embodiment 37; type: cell-based
Method: 9) adding 20 μL/well of the CellTiter 96® AQueous One Solution reagent to the cell culture plate; […]

RPMI 8226 cells = assay: Cytotoxicity in RPMI 8226 cells (CellTiter 96 AQueous One Solution), Embodiment 21; type: cell-based; details: Homo sapiens, RPMI 8226, 96 hours
Method: as §1, §8, §9, §4, §5
7) placing the cell culture plate in the incubator and continuously incubating for 96 hours;
8) placing the CellTiter 96® AQueous One Solution reagent at the room temperature and thawing for 90 minutes or thawing in a water bath at 37 DEG C., and placing at the room temperature and equilibrating for 30 minutes;
9) adding 20 μL/well of the CellTiter 96® AQueous One Solution reagent to the cell culture plate;
10) placing the cell culture plate in the incubator at 37 DEG C. and continuously incubating for 3 hours;
11) using a microplate reader to read a OD490 value of each well in the cell plate; and
12) data processing and analysis.
as §7

[6] = TM value detection by solubility curve method (SYBR Green I); type: physicochemical; details: extension fragment deformation+core short-sequence RNA nanoparticles; temperature at ½ RFUmax in 20 to 90 DEG C. taken as Tm
Method: A solubility curve method is used to detect TM values of the 7 groups of the extension fragment deformation+core short-sequence RNA nanoparticles, and the samples are consistent with the potential samples.
(1) After the sample is diluted with ultrapure water, 5 μg of the diluted sample is mixed with 2 μL of SYBR Green I dye (diluted by 1:200), a final volume is 20 μL, and the dilution concentration is as follows:
(2) It is incubated for 30 min in the dark at a room temperature; and
(3) On-machine detection is performed, a program is set to start at 20 DEG C., the temperature rises per second from 0.1 DEG C. to 95 DEG C., and reading is performed every 5 s.
Due to the particularity of the RNA samples, a temperature corresponding to ½ RFUmax in a range of 20 to 90 DEG C. is used as a sample Tm value in this test.
A solubility curve method is used to detect TM values of the 7 groups of the extension fragment deformation+core short-sequence DNA nanoparticles, and the samples are consistent with the potential samples.

[7] = compared with DNAh targeted fluorescent carrier

O=C1c2c(O)ccc(O)c2C(=O)c2c(NCCNCCO)ccc(NCCNCCO)c21 [Mit (mitoxantrone)]
IC50 (MCF-7 cells [1]): 538 nM

Nc1ccn([C@@H]2O[C@H](CO)[C@@H](O)[C@@H]2O)c(=O)n1 [cytarabine]
IC50 (MV4-11 cells [2]; Homo sapiens): 1250 nM | toxicity to the MV4-11 cells (in words) (MV4-11 cells [2]; [7]): toxic

CC(=O)O[C@@]12CO[C@@H]1C[C@H](O)[C@@]1(C)C(=O)[C@H](O)C3=C(C)[C@@H](OC(=O)[C@H](O)[C@@H](NC(=O)OC(C)(C)C)c4ccccc4)C[C@@](O)([C@@H](OC(=O)c4ccccc4)[C@H]21)C3(C)C [docetaxel]
cell survival rate (HCT116 cells; HCT116, treatment time 72 h, drug concentration 200 nM): 10.68% | inhibition at 0.2 µM (HCT116 cells; Homo sapiens, HCT-116, HCT116, drug concentration 200 nM, 72 hours, read-out: cell inhibition rates): 50.5% | IC50 (MCF-7 cells [3]; read-out: IC50): < 1 nM | IC50 (MCF-7 cells [3]; read-out: IC50 acting on the MCF-7 cells): < 1 nM | IC50 (SKOV3 cells; read-out: IC50): < 1 nM | IC50 (SKOV3 cells; read-out: IC50 acting on the SKOV3 cells): < 1 nM

CC(=O)[C@]1(O)Cc2c(O)c3c(c(O)c2[C@@H](O[C@H]2C[C@H](N)[C@H](O)[C@H](C)O2)C1)C(=O)c1ccccc1C3=O [idarubicin]
IC50 (MCF-7 cells [4]; Homo sapiens, MCF7, MCF-7 cell line, 96 hours incubation, CellTiter 96 AQueous One Solution, OD490): 72.5 nM | toxicity to the MCF-7 cells (in words) (MCF-7 cells [4]; MCF-7, 96 hours, compared with DNAh targeted fluorescent carrier): toxic | IC50 (MV4-11 cells [5]; Homo sapiens, MV4-11 cell line, 96 hours incubation, CellTiter 96 AQueous One Solution, OD490): < 1 nM | toxicity to the MV4-11 cells (in words) (MV4-11 cells [5]; MV4-11, 96 hours, compared with DNAh targeted fluorescent carrier): toxic

Nc1cccc2c1CN(C1CCC(=O)NC1=O)C2=O (stereo not shown) [lenalidomide, 3-(7-amino-3-oxo-1H-isoindol-2-yl) piperidine-2,6-dione]
IC50 (RPMI 8226 cells; read-out: IC50): 72.3 µM | IC50 (RPMI 8226 cells; read-out: IC50 acting on the RPMI 8226 cells): 72.3 µM

O=C1c2c(O)ccc(O)c2C(=O)c2c(NCCNCCO)ccc(NCCNCCO)c21 [mitoxantrone]
toxicity to the MCF-7 cells (in words) (MCF-7 cells [1]; [7]): toxic

B1: R-21: extension fragment deformation+core short-sequence RNA nanoparticles, strands SEQ ID NO: 138-140, a-strand 3′-biotin, 2′F (nucleic acid)
chain 1: GCGGCGAGCGGCGACGAGCGUUGCGGCCGGAGGCCGG
chain 2: CCGGCCUCCGGCCGCUUCGGCGCCAGCCGCC
chain 3: GGCGGCAGGCGCCCAUAGCCGUCGCCGCUCGCCGC
modifications: RNA nanoparticle strands, 2'-fluoro modified, a-strand 3'-biotin, positions not given here
TM value [6]: 65.0 °C

B2: R-15: extension fragment deformation+core short-sequence RNA nanoparticles, strands SEQ ID NO: 120-122, a-strand 3′-biotin, 2′F (nucleic acid)
chain 1: GCGGCGAGCGGCGAGGAGCGUUGGGGCCGGAGGCCGG
chain 2: CCGGCCUCCGGCCCCUUCGGGGCCAGCCGCC
chain 3: GGCGGCAGGCCCCCAUAGCCCUCGCCGCUCGCCGC
modifications: chain 1: 3' {Biotin}, sugars by position and backbone not given here; chain 2: sugars by position and backbone not given here; chain 3: sugars by position and backbone not given here; RNA nanoparticle, 2'-fluoro modified
TM value [6]: 57.5 °C

B3: R-16: extension fragment deformation+core short-sequence RNA nanoparticles, strands SEQ ID NO: 123-125, a-strand 3′-biotin, 2′F (nucleic acid)
chain 1: GCGGCGAGCGGCGAGCAGCGUUCGGGCCGGAGGCCGG
chain 2: CCGGCCUCCGGCCCGUUCGCCGCCAGCCGCC
chain 3: GGCGGCAGGCGGCCAUAGCGCUCGCCGCUCGCCGC
modifications: chain 1: 3' {Biotin}, sugars by position and backbone not given here; chain 2: sugars by position and backbone not given here; chain 3: sugars by position and backbone not given here; RNA nanoparticle, 2'-fluoro modified
TM value [6]: 53.8 °C

B4: R-17: extension fragment deformation+core short-sequence RNA nanoparticles, strands SEQ ID NO: 126-128, a-strand 3′-biotin, 2′F (nucleic acid)
chain 1: GCGGCGAGCGGCGAGGAGCGUUGGGGCCGGAGGCCGG
chain 2: CCGGCCUCCGGCCCCUUCGCCGCCAGCCGCC
chain 3: GGCGGCAGGCGGCCAUAGCCCUCGCCGCUCGCCGC
modifications: chain 1: 3' {Biotin}, sugars by position and backbone not given here; chain 2: sugars by position and backbone not given here; chain 3: sugars by position and backbone not given here; RNA nanoparticle, 2'-fluoro modified
TM value [6]: 55.2 °C

B5: R-18: extension fragment deformation+core short-sequence RNA nanoparticles, strands SEQ ID NO: 129-131, a-strand 3′-biotin, 2′F (nucleic acid)
chain 1: GCGGCGAGCGGCGAGCAGCGUUCGGGCCGGAGGCCGG
chain 2: CCGGCCUCCGGCCCGUUCGGCGCCAGCCGCC
chain 3: GGCGGCAGGCGCCCAUAGCGCUCGCCGCUCGCCGC
modifications: chain 1: 3' {Biotin}, sugars by position and backbone not given here; chain 2: sugars by position and backbone not given here; chain 3: sugars by position and backbone not given here; RNA nanoparticle, 2'-fluoro modified
TM value [6]: 54.5 °C

B6: R-19: extension fragment deformation+core short-sequence RNA nanoparticles, strands SEQ ID NO: 132-134, a-strand 3′-biotin, 2′F (nucleic acid)
chain 1: GCGGCGAGCGGCGAGCAGCGUUCGGGCCGGAGGCCGG
chain 2: CCGGCCUCCGGCCCGUUCGGCCCCAGCCGCC
chain 3: GGCGGCAGGGGCCCAUAGCGCUCGCCGCUCGCCGC
modifications: RNA nanoparticle strands, 2'-fluoro modified, a-strand 3'-biotin, positions not given here
TM value [6]: 54.0 °C
